Results on one compound are retold here after paper PMC8079283 (The Journal of Biological Chemistry, 2021).

The target in the assay is T1, NUDT15 (Homo sapiens, UniProt Q9NV35).
T1 sequence (Q9NV35 1-164): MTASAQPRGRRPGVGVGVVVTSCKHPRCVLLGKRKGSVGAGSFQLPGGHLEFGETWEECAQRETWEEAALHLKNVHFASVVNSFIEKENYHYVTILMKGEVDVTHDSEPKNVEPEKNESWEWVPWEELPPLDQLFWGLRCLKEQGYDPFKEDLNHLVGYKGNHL
The experiment in a line: X-ray crystal structure. Type of assay: biochemical.

A word on the Ki: it is the equilibrium dissociation constant of an inhibitor or competing ligand from its target. Read a high Ki as lower affinity. For `C[C@@H]1CN(C(=O)c2ccc3c(ccn3C)c2)CCN1S(=O)(=O)c1ccc2[nH]c(=O)oc2c1` [compound 6, (R)-6-((2-methyl-4-(1-methyl-1H-indole-5-carbonyl)piperazin-1-yl)sulfonyl)benzo[d]oxazol-2(3H)-one], affinity was put at a Ki of 10.2 ± 0.9 nM.
